The term IC50 denotes the midpoint of a concentration-inhibition curve.

The structures appear in SMILES notation. Where two headings read alike, the source gives them in different places. Marks after values point to notes of the source that are not given here.

Data set [1] concerns 5637 human urinary bladder cancer cells. The data set is described as follows: Wound healing (two-dimensional migration) assay, 5637. The format is cell-based. Particulars: 5637, 10.00 μmol/l, 24 h (FIG. 1C). The procedure: (§1) 1) Cell lines: Cell lines of 5637 human bladder carcinoma, Eca-109 human esophageal carcinoma, HT29 human colon cancer, SGC-7901 human gastric cancer, A549 human lung adenocarcinoma and PC-3 human prostate carcinoma were purchased from the Type Culture Collection of the Chinese Academy of Sciences, Shanghai, China.
(§2) 3) Methods: The cells were trypsinized to generate a single-cell suspension and seeded in 96-well plates (200 μl/well), and incubated with medium containing 10% fetal bovine serum at 37 in a humidified atmosphere with 5% CO2. Following a 24 h incubation, the cells were starved for an additional 12 h in low-serum media (1% FBS). The cultures of Eca-109, HT29, 5637, SGC-7901, A549 and PC-3 were then scratched away with a 200-μl plastic pipette tip and rinsed twice with PBS to remove wound-derived loose and dislodged cells. The cells were cultured in replaced medium without or with compounds at final concentrations of 0, 2.50, 5.00 and 10.00 μmol/L, respectively. At least seven randomly selected views along the scraped line in each well were photographed immediately and 24 h and 36 h after incubation using a digital camera at 50× magnification. The average scraped area in each well under each treatment condition was measured, and the percentage of inhibition against cell migration was calculated. % of inhibition=1−(A0−At)/(A′0−A′t)×100%, where, A0 and At are the areas of wound with compound treatment measured immediately and 24 or 36 h post-injury, respectively; A′0 and A′t are the areas of wound without compound treatment measured immediately and 24 or 36 h post-injury, respectively.

Data set [2] has as its system SGC-7901 human gastric adenocarcinoma cells. The data set is described as follows: Wound healing (two-dimensional migration) assay, SGC-7901. The format is cell-based. Particulars: SGC-7901, 10.00 μmol/l, 36 h (FIG. 1D). The procedure: as §1
as §2, with “The cells were cultured in replaced medium without or with compounds at final concentrations of 0, 2.50, 5.00 and 10.00 μmol/L, respectively. At least seven randomly selected views along the scraped line in each well were photographed immediately and 24 h and 36 h after incubation using a digital camera at 50× magnification.” left out

The test system of data set [3] is SGC-7901 human gastric cancer. The data set is described as follows: Colony formation assay, SGC-7901. The format is cell-based. How it is done:
(§3) 1) Cell lines: Cell lines of SGC-7901 human gastric cancer, A549 human lung adenocarcinoma and Hela human cervical carcinoma were purchased from the Type Culture Collection of the Chinese Academy of Sciences, Shanghai, China.
(§4) 3) Method: Colony formation assay was used. The cells were trypsinized to generate a single-cell suspension and seeded in a 6-well plate at a density of 100 cells/well, then drug-containing medium was added to the well to make the final concentration of compound to 0, 1.25, 2.50, 5.00, 7.50, 10.00 μmol/L, respectively. The experiments were performed in duplicate, and the cells were cultured at 37 in a humidified atmosphere with 5% CO2. Terminate cell culture when the clones can be seen in the culture plate, then remove the culture medium, and wash twice with PBS, fix the cells with methanol (5 ml/well) for 15 min and stain the cells with hematoxylin-eosin stain. The number of clones which comprised more than 50 cells was counted under a TS100-F-PH microscope (Nikon Company, Japan). Calculate relative colony formation ratio (%) and the IC50 values. Relative colony formation ratio (%)=(colony number of drug-administration well/colony number of control well)×100%.

For data set [4], the system named is A549 human lung adenocarcinoma. In words: Colony formation assay, A549. It counts as cell-based. How it is done:
as §3, §4

For data set [5], the system named is ECV304 human vascular endothelial cells. In words: Two-dimensional migration of ECV304 (wound healing). Particulars: 10.00 μmol/L (FIG. 2A). The format is cell-based.
Data set [6] concerns Hela human cervical carcinoma. The data set is described as follows: Colony formation assay, Hela. The format is cell-based. Particulars: Hela. How it is done: as §3, §4
The format of data set [7] is in vivo, mouse. The following applies: C57BL/6 mice, before vs 24 d after administration. How it is done:
(§5) 4) Method: B16-F10 cells in logarithmic growth phase were trypsinized, then resuspended in RPMI1640 medium containing 10% fetal bovine serum and centrifuged at 1000 rpm for 5 min. The supernatant was removed and sterile PBS was added to prepare single-cell suspension (10^7/mL). The murine melanoma lung metastasis model was established in mice via caudal vein injection of B16-F10 cells (0.2 ml/mouse). Mice were randomly divided into 4 groups (n=5) according to body weight, and 24 h later they were administrated intragastrically (ig; 0.2 ml/10 g) once a day continuously for 24 d with vehicle (tumor control group), Cyc (30 mg/kg), compound 3 at 0.85 mmol/kg and 1.10 mmol/kg. Mice were weighed and blood was collected by removing the eyeball at 24 h after the last administration. Sacrificed the mice, removed the lung and counted the number of melanoma nodules in lungs of mice under an anatomical lens. Serum obtained after centrifugation at 3000 rpm for 20 min (3K30 refrigerated centrifuge, Sigma, USA) was conserved at −20° C. Levels of TNF-α and IL-1β in serum were measured by ELISA method, which were performed in accordance with the instructions of the kits.

The next data set has as its system IL-1β. The format is in vivo, mouse. The following applies: C57BL/6 mice, mean ± s, n = 5.
The subject of data set [8] is A549 human lung carcinoma cells. The data set is described as follows: Wound healing (two-dimensional migration) assay, A549. It counts as cell-based. The following applies: A549, 10.00 μmol/l, 36 h (FIG. 1E). The procedure:
as §1, §2

Data set [9] deals with B16-F10 mouse melanoma cells. It counts as in vivo. Particulars: B16-F10, C57BL/6 mice; for Lung index / Nodule number (melanoma nodules in lungs): mean ± s, n = 5. The procedure: 1) Animals: A total of 20 C57BL/6 male mice of clean grade [Number of Animal License: SCXK (Xiang) 2009-0004], weighing 18-22 g, were purchased from Hunan Slca Jingda Experimental Animal Center Company, Ltd., China.
2) Cells: B16-F10 mouse melanoma cells were purchased from Nanjing KeyGen Biotech. Co. Ltd., China.
as §5
Data were expressed as mean±SD and statistical analysis was performed by SPSS Statistics 17.0 using a one-way analysis of variance (ANOVA) followed by unpaired t-test. A value of P<0.05 was considered statistically significant. The inhibition ratio (IR %) of lung metastasis was calculated as follows: IR %=(Nc−Nt)/Nc×100%, where Nc is the average number of nodules in lung tissues of vehicle, and Nt is that of mice treated with drugs.

For a further data set, the system named is TNF-α. It counts as in vivo, mouse. Particulars: C57BL/6 mice, mean ± s, n = 5.
Data set [10] has as its system Eca-109 human esophageal carcinoma cells. In words: Wound healing (two-dimensional migration) assay, Eca-109. The format is cell-based. The following applies: Eca-109, 10.00 μmol/l, 24 h (FIG. 1A). The procedure: as §1, §2
Where [11] appears, read: read-out: Inhibition against tumor cell colony formation IC50.

For the compound `C=C1CCC2C(C)(CO)C(O)CCC2(C)C1C=CC1=CC(=Cc2ccc(Cl)cc2)OC1=O` (stereo not shown) [Compound 2, 15-p-chlorobenzylidene-14-deoxy-11,12-didehydro-andrographolide], the “Inhibitory effect on two-dimensional migration” value in data set [1] and in [2] was “much stronger than that of other tumor cells” in each case. For the same compound, the “Inhibition of colony formation compared with andrographolide” value in [3], in [4] and in data set [6] was “remarkably stronger than that of andrographolide” throughout. Moreover, the IC50 in [3] (setting [11]) was determined as 2.1 µM; in data set [4] (setting [11]), 1.42 µM; in data set [6] (setting [11]), 1.38 µM. In addition, the “Inhibition of two-dimensional migration of ECV304” value in data set [5] is “the most significant one”.

Regarding `C=C1CCC2C(C)(COC(=O)c3cccnc3)C(OC(=O)c3cccnc3)CCC2(C)C1C=CC1=CC(=Cc2ccc(Cl)cc2)OC1=O` (stereo not shown) [Compound 3, 15-p-chlorobenzylidene-14-deoxy-11,12-didehydro-3,19-dinicotinate andrographolide], the “Average net increase in body weight” value in data set [7] (0.85 mmol/kg ig) worked out at 1.64 g; in data set [7] (1.10 mmol/kg ig) it was 2.00 g. Further, the IL-1β in serum in the data set with IL-1β (0.85 mmol/kg ig 24 d) turned out to be 30.76 ± 3.25 pg/mL; with IL-1β (1.10 mmol/kg ig 24 d), 17.86 ± 3.41 pg/mL. In addition, the “Inhibitory effect on two-dimensional migration” value in data set [8] and in data set [10] was “much stronger than that of other tumor cells” each time. Also, the “IR (%) of lung metastasis” value in [9] (0.85 mmol/kg ig 24 d) is given as 58.04%; in data set [9] (0.85 mmol/kg ig 24 d, listed as compound 3) it was 58.04%; in data set [9] (1.10 mmol/kg ig 24 d) it was 65.18%; in data set [9] (1.10 mmol/kg ig 24 d, listed as compound 3), 65.18%. In addition, the values for the Lung index in data set [9] (0.85 mmol/kg ig 24 d) and in [9] (1.10 mmol/kg ig 24 d) were 6.19 ± 0.76 mg/g and 6.39 ± 0.57 mg/g, respectively. Also, the entries for the “Nodule number (melanoma nodules in lungs)” value in [9] (0.85 mmol/kg ig 24 d) and in [9] (1.10 mmol/kg ig 24 d) were 35.25 ± 14.45 and 29.25 ± 881**^∇, respectively. The TNF-α in serum with TNF-α (0.85 mmol/kg ig 24 d) came to 0.52 ± 5.90; in the data set with TNF-α (1.10 mmol/kg ig 24 d), 11.11 ± 5.96.

The record behind these values is US9198894B2, “Uses of 15-benzylidene-14-deoxy-11,12-didehydroandrographolide derivatives in the preparation of antineoplastic drugs” (Zhengzhou University, priority 2010, dated 2015).
